Assay results as given in patent US20060275812A1, “Assay for agonists and antagonists of ion channels and for regulators of genetic expression” (University of Pittsburgh of the Commonwealth System of …, priority 2005, published 2006).

Tested on: vTT infected 7b cells
Test: Detection of apoptosis (DePsipher MPT; CaspACE activated caspases)
Type: cell-based
Settings: overnight capsaicin (3 μm) stimulation
Protocol: Detection of Apoptosis. The DePsipher kit (R&D systems, Minneapolis, Minn.) was used to detect the initiation of mitochondrial permeability transition (MPT) in 7b cells. Briefly, vTT or QOZ infected cells (12 hpi, 0.1 PFU/cell) were incubated with 3 μm capsaicin for one hour at 37° C. in a 5% CO2 incubator. Cells were then loaded with 1 μl DePsipher/ml in pre-warmed culture media for 15-20 min at 37° C. in a 5% CO2 incubator. Following two washes in prewarmed media, cells were immediately imaged using an inverted fluorescence microscope (Carl Zeiss Inc.). For activated caspase detection, the CaspACE FITC-VAD-FMK In-Situ Marker kit (Promega, Madison, Wis.) was used. Briefly, CaspACE FITC-VAD-FMK was added to a final concentration of 10 μM to 7b cells infected with vTT or QOZ virus (12 hpi, 0.3 PFU/cell). Cells were incubated for 20 minutes at 37° C. in a 5% CO2 incubator. Following two washes in PBS, cells were fixed for 30 minutes in 10% formalin, washed three times with PBS and imaged using an inverted fluorescence microscope (Carl Zeiss Inc.).

**Q.** Which activated caspases does the source give for `COc1cc(CNC(=O)CCCC/C=C/C(C)C)ccc1O` [capsaicin] here?
**A.** The activated caspases was “positive”.
